# In patent US11912703B2, “6-azaindole compounds” (BRISTOL-MYERS SQUIBB COMPANY, priority 2017, dated 2024):
# How the values were obtained:
# [1] = biological target: human TLR9 (Homo sapiens (Human), UniProt Q9NR96); assay: TLR9 inhibition reporter assay (HEK-Blue SEAP); details: read-out: TLR9 IC50; HEK-Blue cells overexpressing human TLR9, ODN2006 5 nM stimulation, SEAP reporter;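 note: SEAP driven by IFN-β minimal promoter carrying five NF-κB and AP-1 sites, 22 h at 37 °C, compounds 0.05 nM–50 µM, inhibition scaled between agonist-plus-DMSO and reference-inhibitor wells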
# [2] = biological target: human TLR7 (Homo sapiens (Human), UniProt Q9NYK1); assay: TLR7 inhibition reporter assay (HEK-Blue SEAP); format: cell-based; details: HEK-Blue cells overexpressing human TLR7, gardiquimod 7.5 μM stimulation
# [3] = biological target: human TLR8 (Homo sapiens (Human), UniProt Q9NR97); assay: TLR8 inhibition reporter assay (HEK-Blue SEAP); details: read-out: TLR8 IC50; HEK-Blue cells overexpressing human TLR8, R848 15.9 μM stimulation, SEAP reporter;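 note: SEAP driven by IFN-β minimal promoter with five NF-κB and AP-1 sites, compounds tested 0.05 nM to 50 µM, 22 h incubation, inhibition relative to agonist plus DMSO wells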
# Sequence of human TLR8 (Q9NR97 27-1041): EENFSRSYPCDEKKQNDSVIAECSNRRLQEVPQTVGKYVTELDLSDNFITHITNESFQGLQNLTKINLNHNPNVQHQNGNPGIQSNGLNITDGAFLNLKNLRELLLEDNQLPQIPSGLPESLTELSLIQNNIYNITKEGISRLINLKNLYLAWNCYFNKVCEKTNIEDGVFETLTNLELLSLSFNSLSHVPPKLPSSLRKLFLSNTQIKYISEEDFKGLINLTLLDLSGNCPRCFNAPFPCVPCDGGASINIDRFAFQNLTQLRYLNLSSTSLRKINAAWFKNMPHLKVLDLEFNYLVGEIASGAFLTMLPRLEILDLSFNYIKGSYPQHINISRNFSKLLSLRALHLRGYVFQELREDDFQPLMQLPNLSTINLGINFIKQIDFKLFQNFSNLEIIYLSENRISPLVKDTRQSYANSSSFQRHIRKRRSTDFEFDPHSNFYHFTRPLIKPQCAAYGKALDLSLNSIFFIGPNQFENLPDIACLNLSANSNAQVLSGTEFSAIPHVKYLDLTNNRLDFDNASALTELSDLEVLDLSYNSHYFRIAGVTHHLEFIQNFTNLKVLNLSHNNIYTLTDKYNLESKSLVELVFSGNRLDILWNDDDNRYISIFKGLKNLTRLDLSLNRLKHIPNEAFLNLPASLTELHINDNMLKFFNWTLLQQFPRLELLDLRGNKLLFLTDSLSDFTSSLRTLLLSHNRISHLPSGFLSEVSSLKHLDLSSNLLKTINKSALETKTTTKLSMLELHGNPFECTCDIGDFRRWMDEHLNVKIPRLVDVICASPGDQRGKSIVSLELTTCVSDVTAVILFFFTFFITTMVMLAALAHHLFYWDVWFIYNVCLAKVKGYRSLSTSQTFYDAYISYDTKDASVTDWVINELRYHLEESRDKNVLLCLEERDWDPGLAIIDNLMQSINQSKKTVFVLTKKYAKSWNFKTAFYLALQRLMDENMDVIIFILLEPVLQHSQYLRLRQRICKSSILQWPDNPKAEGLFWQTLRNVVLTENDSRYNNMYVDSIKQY
# Sequence of human TLR9 (Q9NR96 26-1032): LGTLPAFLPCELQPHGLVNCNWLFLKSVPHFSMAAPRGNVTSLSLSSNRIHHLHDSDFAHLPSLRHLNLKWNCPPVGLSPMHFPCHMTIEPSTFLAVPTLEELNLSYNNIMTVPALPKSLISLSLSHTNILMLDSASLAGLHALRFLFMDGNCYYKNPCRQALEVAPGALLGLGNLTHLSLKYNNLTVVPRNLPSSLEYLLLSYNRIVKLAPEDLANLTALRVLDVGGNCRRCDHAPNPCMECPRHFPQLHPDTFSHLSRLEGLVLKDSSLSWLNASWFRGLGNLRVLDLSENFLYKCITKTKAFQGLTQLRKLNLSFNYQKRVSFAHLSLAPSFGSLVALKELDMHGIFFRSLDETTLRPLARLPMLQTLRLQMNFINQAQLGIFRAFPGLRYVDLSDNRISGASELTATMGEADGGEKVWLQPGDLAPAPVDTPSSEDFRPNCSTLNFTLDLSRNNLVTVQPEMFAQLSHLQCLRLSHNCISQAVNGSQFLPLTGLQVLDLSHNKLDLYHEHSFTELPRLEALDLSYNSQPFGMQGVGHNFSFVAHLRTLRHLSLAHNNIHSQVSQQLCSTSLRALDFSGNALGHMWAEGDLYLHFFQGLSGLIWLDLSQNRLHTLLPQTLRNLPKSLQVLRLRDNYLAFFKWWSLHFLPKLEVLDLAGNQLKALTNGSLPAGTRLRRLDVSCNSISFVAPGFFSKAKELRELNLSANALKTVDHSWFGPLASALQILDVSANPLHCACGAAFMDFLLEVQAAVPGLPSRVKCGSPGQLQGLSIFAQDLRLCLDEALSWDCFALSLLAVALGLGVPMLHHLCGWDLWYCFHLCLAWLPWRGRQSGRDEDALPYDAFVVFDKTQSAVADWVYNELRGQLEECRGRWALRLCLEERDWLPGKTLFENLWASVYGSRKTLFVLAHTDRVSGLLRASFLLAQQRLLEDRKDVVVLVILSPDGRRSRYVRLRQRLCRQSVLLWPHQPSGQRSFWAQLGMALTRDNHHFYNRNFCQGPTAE
# Sequence of human TLR7 (Q9NYK1 27-1049): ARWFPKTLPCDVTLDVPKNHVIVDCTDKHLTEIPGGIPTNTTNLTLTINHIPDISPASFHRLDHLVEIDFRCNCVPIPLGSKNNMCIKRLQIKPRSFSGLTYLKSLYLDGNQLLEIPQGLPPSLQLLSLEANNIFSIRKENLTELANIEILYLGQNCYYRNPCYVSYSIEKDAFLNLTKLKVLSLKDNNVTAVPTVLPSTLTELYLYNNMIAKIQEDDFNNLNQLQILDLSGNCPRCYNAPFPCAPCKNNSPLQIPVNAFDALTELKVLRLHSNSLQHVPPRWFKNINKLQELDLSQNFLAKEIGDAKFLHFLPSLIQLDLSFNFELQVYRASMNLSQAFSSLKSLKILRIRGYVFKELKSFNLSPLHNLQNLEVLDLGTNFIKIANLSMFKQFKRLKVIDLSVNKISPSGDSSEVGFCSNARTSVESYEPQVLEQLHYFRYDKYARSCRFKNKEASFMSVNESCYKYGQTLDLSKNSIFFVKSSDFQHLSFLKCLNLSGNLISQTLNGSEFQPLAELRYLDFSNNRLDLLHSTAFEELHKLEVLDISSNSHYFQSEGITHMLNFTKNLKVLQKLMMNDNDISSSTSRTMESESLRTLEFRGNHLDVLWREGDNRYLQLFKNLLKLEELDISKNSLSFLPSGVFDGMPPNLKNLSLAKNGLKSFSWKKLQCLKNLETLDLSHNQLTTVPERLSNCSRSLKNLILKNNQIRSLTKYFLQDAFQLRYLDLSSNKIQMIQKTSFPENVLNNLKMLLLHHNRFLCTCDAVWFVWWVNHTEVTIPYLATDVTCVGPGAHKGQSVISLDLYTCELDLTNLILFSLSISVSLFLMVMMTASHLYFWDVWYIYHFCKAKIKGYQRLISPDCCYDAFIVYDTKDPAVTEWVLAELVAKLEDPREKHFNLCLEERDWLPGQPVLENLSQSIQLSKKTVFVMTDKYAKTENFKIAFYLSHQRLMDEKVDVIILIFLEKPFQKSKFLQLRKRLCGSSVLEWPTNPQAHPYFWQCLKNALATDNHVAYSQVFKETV
IC50 [1] [nM],IC50 [2] [nM],IC50 [3] [nM],Structure (SMILES)
3050,0.53,1.4,Cc1c(N2CCC(NC3COC3)CC2)ncc2[nH]c(-c3cc(C)c4ncnn4c3)c(C(C)C)c12 [Example 140]
482,27,25,COc1cc(-c2[nH]c3cnc(C4CCC(N5CC6(COC6)C5)C4)cc3c2C(C)C)cn2ncnc12 (stereo not drawn) [Example 141]
282,13,39,Cc1c(-c2[nH]c3cnc(C4CCC(N5CC6(COC6)C5)CC4)c(C)c3c2C(C)C)cn2ncnc2c1C (stereo not drawn) [Example 142]
683,33,33,CCN(C)C1CCC(c2ncc3[nH]c(-c4cn5ncnc5c(C)c4C)c(C(C)C)c3c2C)CC1 (stereo not drawn) [Example 143]
1250,14,14,COc1cc(-c2[nH]c3cnc(C4CCC(NCC(C)(C)C)C4)cc3c2C(C)C)cn2ncnc12 (stereo not drawn) [Example 144]
6660,1.1,0.46,Cc1c(-c2[nH]c3cnc(N4CCC(NC5COC5)CC4)c(F)c3c2C(C)C)cn2ncnc2c1C [Example 146]
2060,0.62,0.27,COc1cc(-c2[nH]c3cnc(N4CCC(NCC5(C)COC5)CC4)c(C)c3c2C(C)C)cn2ncnc12 [Example 147]
1170,1.1,1.7,Cc1c(N2CCC(NC34CC(C3)C4)CC2)ncc2[nH]c(-c3cc(C)c4ncnn4c3)c(C(C)C)c12 [Example 148]
13100,3.6,5.1,Cc1cc(-c2[nH]c3cnc(C4CCN(CCS(C)(=O)=O)CC4)c(F)c3c2C(C)C)cn2ncnc12 [Example 149]
6060,3.4,5.3,CNC(=O)CN1CCC(c2ncc3[nH]c(-c4cc(C)nc(C)c4)c(C(C)C)c3c2F)CC1 [Example 150]
768,1.1,4.4,Cc1cc(-c2[nH]c3cnc(C4CCNCC4)c(F)c3c2C(C)C)cc(C)n1 [Example 151]
4090,5,6.4,Cc1cc(-c2[nH]c3cnc(C4CCN(CC(N)=O)CC4)c(F)c3c2C(C)C)cc(C)n1 [Example 152]
3830,8.8,5.2,Cc1cc(-c2[nH]c3cnc(C4CCN(CC(=O)N(C)C)CC4)c(F)c3c2C(C)C)cc(C)n1 [Example 153]
1220,4,4.4,COc1cc(-c2[nH]c3cnc(N4CCN(C(=O)CN(C)C)CC4)c(C)c3c2C(C)C)cn2ncnc12 [Example 154]
6310,7.3,5,COc1cc(-c2[nH]c3cnc(N4CCN(CC(N)=O)CC4)c(C)c3c2C(C)C)cn2ncnc12 [Example 155]
6430,0.79,0.26,COc1cc(-c2[nH]c3cnc(N4CCC(NCC(C)(C)O)CC4)c(F)c3c2C(C)C)cn2ncnc12 [Example 156]
4180,0.8,0.51,COc1cc(-c2[nH]c3cnc(N4CCC(NC(C)C)CC4)c(F)c3c2C(C)C)cn2ncnc12 [Example 157]
17500,1.4,2.1,Cc1cc(-c2[nH]c3cnc(N4CCC(N(C)CC(N)=O)CC4)c(F)c3c2C(C)C)cn2ncnc12 [Example 158]
455,3.4,4.5,COc1cc(-c2[nH]c3cnc(C4CCC(NC(C)C)CC4)c(F)c3c2C(C)C)cn2ncnc12 (stereo not drawn) [Example 159]
293,2.4,4.6,COc1cc(-c2[nH]c3cnc(C4CCC(N5CC6(COC6)C5)CC4)c(F)c3c2C(C)C)cn2ncnc12 (stereo not drawn) [Example 161]
2150,1.3,1,COc1cc(-c2[nH]c3cnc(C4CCC(NCC(C)(C)C)CC4)c(F)c3c2C(C)C)cn2ncnc12 (stereo not drawn) [Example 162]
1320,0.39,0.87,CCN(C)C1CCC(c2ncc3[nH]c(-c4cc(C)c5ncnn5c4)c(C(C)C)c3c2F)CC1 (stereo not drawn) [Example 163]
1800,6.2,4.6,Cc1cc(-c2[nH]c3cnc(C4CCC(NCC(C)(C)O)CC4)c(F)c3c2C(C)C)cn2ncnc12 (stereo not drawn) [Example 164]
905,0.4,0.62,Cc1c(-c2[nH]c3cnc(C4CCC(N5CCC5)CC4)c(F)c3c2C(C)C)cn2ncnc2c1C (stereo not drawn) [Example 165]
3340,0.41,0.18,Cc1c(-c2[nH]c3cnc(N4CCC(NC(C)C)CC4)c(F)c3c2C(C)C)cn2ncnc2c1C [Example 166]
4330,2.6,0.49,Cc1c(-c2[nH]c3cnc(N4CCC(NCC(C)(C)C)CC4)c(F)c3c2C(C)C)cn2ncnc2c1C [Example 167]

IC50 [1] [nM],IC50 [2] [nM],IC50 [3] [nM],Structure (SMILES)
17500,3.6,4.5,Cc1c(-c2[nH]c3cnc(C4CCC(N(C)C(C)C)CC4)c(F)c3c2C(C)C)cn2ncnc2c1C (stereo not drawn) [Example 168]
1730,0.36,0.33,COc1cc(-c2[nH]c3cnc(N4CCC(NCC(C)(C)C)CC4)c(C)c3c2C(C)C)cn2ncnc12 [Example 169]
2290,0.42,0.71,Cc1c(N2CCC(NCC3(C)COC3)CC2)ncc2[nH]c(-c3cc(C)c4ncnn4c3)c(C(C)C)c12 [Example 170]
1960,0.43,0.12,Cc1c(-c2[nH]c3cnc(C4CCC(NCC5(C)COC5)CC4)c(F)c3c2C(C)C)cn2ncnc2c1C (stereo not drawn) [Example 171]
2650,4.4,0.75,Cc1c(-c2[nH]c3cnc(C4CCC(NCC5(C)COC5)CC4)c(F)c3c2C(C)C)cn2ncnc2c1C (stereo not drawn) [Example 172]
653,1.5,0.54,COC(C)(C)CNC1CCN(c2ncc3[nH]c(-c4cn5ncnc5c(C)c4C)c(C(C)C)c3c2C)CC1 [Example 173]
7720,0.78,0.67,Cc1c(-c2[nH]c3cnc(C4CCC(NC5COC5)CC4)c(F)c3c2C(C)C)cn2ncnc2c1C (stereo not drawn) [Example 174]
7940,23,6.4,Cc1c(-c2[nH]c3cnc(C4CCC(NC[C@@H](F)C(C)(C)O)CC4)c(F)c3c2C(C)C)cn2ncnc2c1C (stereo partly drawn) [Example 175]
325,16,18,COc1cc(-c2[nH]c3cnc(C4CCC(NC5CCOCC5)CC4)c(C)c3c2C(C)C)cn2ncnc12 (stereo not drawn) [Example 176]
549,8.7,4,CCN(C)C1CCC(c2cc3c(C(C)C)c(-c4cc(OC)c5ncnn5c4)[nH]c3cn2)C1 (stereo not drawn) [Example 177]
321,7,2.7,COc1cc(-c2[nH]c3cnc(C4CCC(NC5COC5)C4)cc3c2C(C)C)cn2ncnc12 (stereo not drawn) [Example 178]
486,20,7,COc1cc(-c2[nH]c3cnc(C4CCC(NCC(C)(C)OC)C4)cc3c2C(C)C)cn2ncnc12 (stereo not drawn) [Example 179]
6550,1.5,5,CNC(=O)CN1CCC(c2ncc3[nH]c(-c4cc(C)c5ncnn5c4)c(C(C)C)c3c2F)CC1 [Example 181]
18800,3.8,11,Cc1cc(-c2[nH]c3cnc(C4CCN(C5COC5)CC4)c(F)c3c2C(C)C)cn2ncnc12 [Example 182]
2450,1.8,3.4,COCCN1CCC(c2ncc3[nH]c(-c4cc(C)c5ncnn5c4)c(C(C)C)c3c2F)CC1 [Example 183]
1870,1.9,7.9,Cc1cc(-c2[nH]c3cnc(C4CCNCC4)c(F)c3c2C(C)C)cn2ncnc12 [Example 184]
1550,6.2,7.8,Cc1cc(-c2[nH]c3cnc(C4CCN(C(=O)CN(C)C)CC4)c(F)c3c2C(C)C)cc(C)n1 [Example 185]
26500,12,6.6,COc1cc(-c2[nH]c3cnc(N4CCN(CCS(C)(=O)=O)CC4)c(C)c3c2C(C)C)cn2ncnc12 [Example 186]
1530,2.1,2,Cc1cc(-c2[nH]c3cnc(C4CCN(C5CCOCC5)CC4)c(F)c3c2C(C)C)cn2ncnc12 [Example 187]
5160,1.6,0.21,COc1cc(-c2[nH]c3cnc(N4CCC(NC5(C)COC5)CC4)c(F)c3c2C(C)C)cn2ncnc12 [Example 188]
30700,20,16,COc1cc(-c2[nH]c3cnc(N4CCC(N(C)CC(F)F)CC4)c(F)c3c2C(C)C)cn2ncnc12 [Example 189]
874,0.77,0.22,COc1cc(-c2[nH]c3cnc(N4CCC(NC5CCOC5)CC4)c(F)c3c2C(C)C)cn2ncnc12 (stereo not drawn) [Example 190]
3500,0.91,1.1,CNC1CCN(c2ncc3[nH]c(-c4cc(OC)c5ncnn5c4)c(C(C)C)c3c2F)CC1 [Example 191]
1250,0.84,0.4,COc1cc(-c2[nH]c3cnc(C4CCC(NCC5(C)COC5)CC4)c(F)c3c2C(C)C)cn2ncnc12 (stereo not drawn) [Example 193]
2080,3,1.1,Cc1cc(-c2[nH]c3cnc(N4CCC(N(C)CC(C)(C)C)CC4)c(F)c3c2C(C)C)cn2ncnc12 [Example 196]
1570,0.3,0.44,COc1cc(-c2[nH]c3cnc(C4CCC(N(C)C5COC5)CC4)c(F)c3c2C(C)C)cn2ncnc12 (stereo not drawn) [Example 197]
